Assay results taken from US20250289787A1, “HERBICIDAL 2-OXO-NICOTINIC ACID DERIVATIVES” (SYNGENTA CROP PROTECTION AG, priority 2022, published 2025).

Assays:
Type in all cases: in vivo
Parameters in all cases: key: 5=81-100%; 4=61-80%; 3=41-60%; 2=21-40%; 1=1-20%; 0=no damage to the plant; -=not tested
[1] = tested on: Amaranthus palmeri (AMAPA); experiment: Post-emergence test, herbicidal damage; conditions: sprayed after 8 days cultivation, 1000 g/ha unless otherwise stated, evaluated after 13 days, five-point scale
How it was run: (§1)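 Treatment with 1000 g/ha compound (acetone/water 50:50, 0.5% Tween 20), followed by 13 days' glasshouse growth at 24/16 °C and 65% humidity with twice-daily watering. Visual percentage damage was converted to 0–5 ratings in 20% bands.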

[2] = tested on: Ipomoea hederacea (IPOHE); experiment: Post-emergence test, herbicidal damage; conditions: sprayed after 8 days cultivation, 1000 g/ha unless otherwise stated, evaluated after 13 days, five-point scale
How it was run: as §1

Setaria faberi (SETFA) [3] = experiment: Post-emergence test, herbicidal damage; conditions: sprayed after 8 days cultivation, 1000 g/ha unless otherwise stated, evaluated after 13 days, five-point scale
How it was run: as §1

Zea mays (ZEAMX) [4] = experiment: Post-emergence test, herbicidal damage; conditions: sprayed after 8 days cultivation, 1000 g/ha unless otherwise stated, evaluated after 13 days, five-point scale
How it was run: as §1

[5] = tested on: Echinochloa crus-galli (ECHCG); experiment: Post-emergence test, herbicidal damage; conditions: sprayed after 8 days cultivation, 1000 g/ha unless otherwise stated, evaluated after 13 days, five-point scale
How it was run: as §1

[6] = tested on: Amaranthus retoflexus (AMARE); experiment: Post-emergence test, herbicidal damage; conditions: sprayed after 8 days cultivation, 1000 g/ha unless otherwise stated, evaluated after 13 days, five-point scale
How it was run: as §1

[7] = tested on: Ipomoea hederacea (IPOHE); experiment: Pre-emergence test, herbicidal damage; conditions: 1000 g/ha unless otherwise stated, evaluated after 13 days, five-point scale
[8] = tested on: Amaranthus retoflexus (AMARE); experiment: Pre-emergence test, herbicidal damage; conditions: 1000 g/ha unless otherwise stated, evaluated after 13 days, five-point scale
Zea mays (ZEAMX) [9] = experiment: Pre-emergence test, herbicidal damage; conditions: 1000 g/ha unless otherwise stated, evaluated after 13 days, five-point scale
Setaria faberi (SETFA) [10] = experiment: Pre-emergence test, herbicidal damage; conditions: 1000 g/ha unless otherwise stated, evaluated after 13 days, five-point scale
[11] = tested on: Echinochloa crus-galli (ECHCG); experiment: Pre-emergence test, herbicidal damage; conditions: 1000 g/ha unless otherwise stated, evaluated after 13 days, five-point scale
[12] = tested on: Amaranthus palmeri (AMAPA); experiment: Pre-emergence test, herbicidal damage; conditions: 1000 g/ha unless otherwise stated, evaluated after 13 days, five-point scale

Row | SMILES | percentage damage caused to the plant, AMAPA [1] | percentage damage caused to the plant, IPOHE [2] | percentage damage caused to the plant, SEFTA (Setaria faberi (SETFA) [3]) | percentage damage caused to the plant, ZEAMX (Zea mays (ZEAMX) [4]) | percentage damage caused to the plant, ECHCG [5] | percentage damage caused to the plant, AMARE [6] | percentage damage caused to the plant, IPOHE [7] | percentage damage caused to the plant, AMARE [8] | percentage damage caused to the plant, ZEAMX (Zea mays (ZEAMX) [9]) | percentage damage caused to the plant, SEFTA (Setaria faberi (SETFA) [10]) | percentage damage caused to the plant, ECHCG [11] | percentage damage caused to the plant, AMAPA [12]
1 | Cc1c(Cl)c(-c2ccc(Cl)c(Cl)c2)c(C(=O)O)c(=O)n1Cc1ccc(F)cc1F [Compound 34, 5-chloro-4-(3,4-dichlorophenyl)-1-[(2,4-difluorophenyl)methyl]-6-methyl-2-oxo-pyridine-3-carboxylic acid] | 4 (4=61-80%) | 1 (1=1-20%) | 0 | 0 | 1 (1=1-20%) | 3 (3=41-60%) | 0 | 3 (3=41-60%) | 0 | 1 (1=1-20%) | 1 (1=1-20%) | 4 (4=61-80%)
2 | Cc1[nH]c(=O)c(C(=O)O)c(-c2ccc(Cl)c(Cl)c2)c1C#N [Compound 11, 5-cyano-4-(3,4-dichlorophenyl)-6-methyl-2-oxo-1H-pyridine-3-carboxylic acid] | 0 | 0 | 0 | 0 | 0 | 0 | 0 | 0 | 0 | 0 | 0 | 0
3 | Cc1c(O)c(-c2ccc(Cl)c(Cl)c2)c(C(=O)O)c(=O)n1-c1ccc(Cl)cc1F [Compound 42, 1-(4-chloro-2-fluoro-phenyl)-4-(3,4-dichlorophenyl)-5-hydroxy-6-methyl-2-oxo-pyridine-3-carboxylic acid] | 2 (2=21-40%) | 1 (1=1-20%) | 0 | 0 | 0 | 2 (2=21-40%) | 0 | 2 (2=21-40%) | 0 | 0 | 1 (1=1-20%) | 2 (2=21-40%)
4 | Cc1c(Br)c(-c2ccc(Cl)c(Cl)c2)c(C(=O)O)c(=O)n1C [Compound 5, 5-bromo-4-(3,4-dichlorophenyl)-1,6-dimethyl-2-oxo-pyridine-3-carboxylic acid] | 1 (1=1-20%) | 1 (1=1-20%) | 0 | 1 (1=1-20%) | 0 | 1 (1=1-20%) | 0 | 0 | 0 | 0 | 0 | 0
5 | Cc1cc(-c2ccc(Cl)c(Cl)c2)c(C(=O)O)c(=O)n1-c1cccc(C(F)(F)F)c1 [Compound 15, 4-(3,4-dichlorophenyl)-6-methyl-2-oxo-1-[3-(trifluoromethyl)phenyl]pyridine-3-carboxylic acid] | 4 (4=61-80%) | 1 (1=1-20%) | 2 (2=21-40%) | 1 (1=1-20%) | 1 (1=1-20%) | 4 (4=61-80%) | 0 | 4 (4=61-80%) | 0 | 2 (2=21-40%) | 0 | 4 (4=61-80%)
6 | Cc1cc(-c2ccc(Cl)c(Cl)c2)c(C(=O)O)c(=O)n1-c1ncc(Cl)cc1Cl [Compound 19, 4-(3,4-dichlorophenyl)-1-(3,5-dichloro-2-pyridyl)-6-methyl-2-oxo-pyridine-3-carboxylic acid] | 1 (1=1-20%) | 1 (1=1-20%) | 1 (1=1-20%) | 1 (1=1-20%) | 1 (1=1-20%) | 0 | 0 | 0 | 0 | 0 | 0 | 0
7 | COCc1c(-c2ccc(Cl)c(Cl)c2)c(C(=O)O)c(=O)n(-c2ccc(F)cc2F)c1C [Compound 36, 4-(3,4-dichlorophenyl)-1-(2,4-difluorophenyl)-5-(methoxymethyl)-6-methyl-2-oxo-pyridine-3-carboxylic acid] | 2 (2=21-40%) | 1 (1=1-20%) | 1 (1=1-20%) | 0 | 0 | 2 (2=21-40%) | 1 (1=1-20%) | 2 (2=21-40%) | 0 | 0 | 1 (1=1-20%) | 2 (2=21-40%)
8 | Cc1c(-c2ccc(Cl)c(Cl)c2)c(C(=O)O)c(=O)n(C)c1C [Compound 12, 4-(3,4-dichlorophenyl)-1,5,6-trimethyl-2-oxo-pyridine-3-carboxylic acid] | 2 (2=21-40%) | 1 (1=1-20%) | 1 (1=1-20%) | 0 | 1 (1=1-20%) | 1 (1=1-20%) | 0 | 0 | 0 | 2 (2=21-40%) | 1 (1=1-20%) | 1 (1=1-20%)
